From PubChem BioAssay (NCI) come the findings set out here.

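48-hour exposure; five concentrations; linearly interpolated endpoints. GI50: concentration for 50% inhibition of growth. TGI denotes the concentration required for complete inhibition of growth.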

Common to all, as to assay: inhibition of tumour cell growth, NCI panel, 48 h
In experiment [1] the test system is HL-60(TB) leukemia.
Experiment [2] has as its system CCRF-CEM leukemia.
Experiment [3] relates to COLO 205 colon.
The test system of experiment [4] is OVCAR-8 ovarian.
In experiment [5] the test system is UO-31 renal.
In experiment [6] the test system is MALME-3M melanoma.
The subject of experiment [7] is EKVX NSCLC.
For experiment [8], the system named is SK-OV-3 ovarian.
For experiment [9], the system named is HOP-62 NSCLC.
The subject of experiment [10] is LOX IMVI melanoma.

With `Nc1ccc(COC(O)CN2CCCCC2)cc1[N+](=O)[O-]` (stereo not drawn), the TGI in experiment [1], in [2], in [3], in [4], in [5] and in experiment [6] was > 100 µM each time.

For the molecule `Cc1nc2ccccn2c1NC(=O)NNC(=S)Nc1ccc(F)cc1`, the GI50 in experiment [1], in experiment [2], in [7], in experiment [8], in experiment [9] and in [3] was > 100 µM in each case. The GI50 in [10], in experiment [4] and in [5] was > 100 µM in each case. The TGI in experiment [1], in [2], in experiment [7], in [8], in [9] and in experiment [3] was > 100 µM each time. Besides, the TGI in [10], in experiment [4] and in experiment [5] was > 100 µM each time.

With `ClCc1ccccc1Cn1cnc2c(Cl)ncnc21`, the GI50 was 1.28 µM in experiment [2]; 3.11 µM in experiment [7]; 4.19 µM in [8]; 2.52 µM in experiment [9]; 3.89 µM in experiment [3]; 2.14 µM in [10]. The GI50 in experiment [4] was 2.22 µM; in experiment [5] it was 2.65 µM. The TGI was 3.24 µM in [2]; 11 µM in experiment [7]; 15.9 µM in [8]; 6.03 µM in experiment [9]; > 100 µM in experiment [3]; 5.21 µM in experiment [10]. Moreover, the TGI in [4] turned out to be 5.21 µM; in experiment [5], 10.4 µM.

Turning to `COc1cc2c(cc1OC)C1Cc3ccc(OC)c(OC)c3C[N+]1([O-])CC2` (stereo not drawn), the TGI in [2], in experiment [7], in experiment [9], in experiment [4], in experiment [5] and in [6] was > 100 µM throughout.

`COC(=O)[C@@H](C)[C@H]1CC[C@@](C)(CCC2=C(C)CC3C=C(C)CCC3C2(C)C)OO1` (stereo partly drawn): the TGI turned out to be 0.449 µM in experiment [1]; 0.39 µM in [2]; 3.03 µM in experiment [7]; 3.87 µM in [8]; 3.72 µM in [9]; 4.38 µM in [3]. Besides, the TGI in experiment [4] is 4.09 µM; in [5] it was 2.76 µM; in experiment [6], 3.96 µM.

Take `CN(C)CCCC1(c2ccc(F)cc2)OCc2cc(-c3cc4ccccc4s3)ccc21` (stereo not drawn): the GI50 in experiment [1] is 1.76 µM; in experiment [7], 1.66 µM; in [8] it was 1.66 µM; in [9], 1.6 µM; in [3] it was 1.34 µM; in experiment [10] it was 1.64 µM. Besides, the GI50 in [4] was 1.72 µM; in experiment [5] it was 1.24 µM; in [6] it was 1.54 µM. Moreover, the TGI amounted to 3.39 µM in [1]; 3.07 µM in experiment [7]; 3.04 µM in experiment [8]; 3 µM in [9]; 2.74 µM in experiment [3]; 3.13 µM in experiment [10]. Besides, the TGI in [4] turned out to be 3.25 µM; in experiment [5] it was 2.49 µM; in experiment [6], 2.98 µM.

`Cc1nc(/C=C2\C(=O)C=Cc3ccccc32)c(O)o1`: the TGI in experiment [1], in experiment [2], in [7], in [9], in [3] and in [4] was > 100 µM each time. Besides, the TGI in [5] and in experiment [6] was > 100 µM in each case.

Take `CCOC(=O)C1=C(C)N(NC(N)=O)C2(N)N(NC(N)=O)C(C)=C(C(=O)OCC)C12C(=O)OCC` (stereo not drawn): the TGI in [7], in [8], in experiment [9], in [10], in experiment [4] and in experiment [5] was > 100 µM in each case. Moreover, the TGI in [6] is > 100 µM.

As to `C=CCN1/C(=C2\SC(=S)N(c3ccc(C)cc3)C2=O)Sc2c1ncn(C)c2=O`, the TGI in experiment [1], in [2], in experiment [7], in experiment [8], in experiment [9] and in experiment [3] was > 100 µM in each case. Also, the TGI in experiment [10], in experiment [4] and in experiment [5] was > 100 µM each time.

Regarding `COC1CCC(OC)C(C2(C3CC(OC)CCC3OC)OC(=O)c3ccccc32)C1` (stereo not drawn), the TGI in experiment [1] was 45.1 µM; in experiment [7], > 100 µM; in experiment [8], > 100 µM; in [9], > 100 µM; in [3] it was > 100 µM; in experiment [4], > 100 µM. Moreover, the TGI in experiment [5] and in experiment [6] was > 100 µM throughout.

`CC(C(=O)c1ccccc1)C1(O)C(=O)Nc2ccc(Cl)cc21` (stereo not drawn): the TGI in experiment [7], in experiment [8], in experiment [9], in experiment [3], in [10] and in experiment [4] was > 100 µM throughout. The TGI in experiment [5] was 89.7 µM; in [6], > 100 µM.

For `CCCCCCCCCCCCCCCCCCNC(=S)/N=C/c1c(O)c2ccccc2[nH]c1=O`, the TGI in experiment [1] came to 17.9 µM; in experiment [7], 29.6 µM; in experiment [8], 49.1 µM; in experiment [9] it was 33 µM; in experiment [3], 32.9 µM; in [10], 32.2 µM. For the same molecule, the values for the TGI in [4] and in experiment [5] were 29.6 µM and 32.6 µM, respectively.

`COC(=O)/C(C#N)=C(\N)C(Cl)(Cl)Cl`: the TGI in [1] came to 1.32 µM; in experiment [2], 2.67 µM; in experiment [7], 17.8 µM; in experiment [8] it was 5.3 µM; in experiment [9] it was 39 µM; in experiment [3], 4.72 µM. Moreover, the values for the TGI in experiment [10], in [4] and in experiment [5] were 10.8 µM, 4.68 µM and 86.6 µM, respectively.

With `CCCCc1c2cnccc2c(CCCC)c2c1[nH]c1ccccc12`, the TGI in experiment [2] was determined as 99 µM; in experiment [7], 36 µM; in [8], 42.2 µM; in experiment [9], 18.8 µM; in experiment [3], 27.4 µM; in experiment [10] it was 41.4 µM. Further, the TGI in experiment [4] is 31.1 µM; in experiment [5], 29.8 µM; in [6], 37.8 µM.

For the molecule `OC12c3ccccc3C1CCCCCCCCCC21OCCO1` (stereo not drawn), the TGI in experiment [2], in experiment [8], in [9], in [3], in experiment [10] and in experiment [4] was > 100 µM in each case. The TGI in experiment [5] and in experiment [6] was > 100 µM in each case.

Regarding `C=CCC1(C(=O)OC(C)(C)C)C(OC)=C(C(=O)OC(C)(C)C)C2C1C(C(=O)OC(C)(C)C)=C(OC)C2(CC=C)C(=O)OC(C)(C)C` (stereo not drawn), the TGI in experiment [1], in [2], in experiment [7], in experiment [8], in [3] and in [4] was > 100 µM throughout. Moreover, the TGI in [5] was > 100 µM.

Consider `COC(=O)C1CC(OC(C)=O)C=C2C(=O)CCC21` (stereo not drawn), for which the TGI in [1] worked out at 29.5 µM; in experiment [2], 34.4 µM; in experiment [8], 69.9 µM; in experiment [9] it was 61 µM; in experiment [3], 34.4 µM; in [4], 37.6 µM. Moreover, the TGI is 80.3 µM in experiment [5] and 63.8 µM in [6].

Regarding `N#C/C(=N\Nc1ccccc1)C(=O)Nc1cc(-c2ccccc2)nn1-c1ccccc1`, the GI50 in [1] was 2.94 µM; in experiment [2], 2.5 µM; in [7], 2.93 µM; in [9], 2.84 µM; in experiment [3], 2.17 µM; in [4] it was 3.25 µM. The GI50 in [5] is 2.58 µM; in experiment [6], 2.84 µM. Further, the TGI in experiment [1] was 22.1 µM; in experiment [2], > 100 µM; in experiment [7], > 100 µM; in experiment [9], 49.9 µM; in experiment [3], 4.77 µM; in experiment [4] it was > 100 µM. Besides, the TGI in experiment [5] and in [6] was > 100 µM in each case.

`O=c1oc2cc(OC/C(=N/O)c3ccc(F)cc3)ccc2c2ccccc12`: the GI50 in experiment [2] was 23 µM; in experiment [7], 20.9 µM; in experiment [8], 24 µM; in experiment [9], 18.1 µM; in experiment [3] it was 25.3 µM; in experiment [4], 22.5 µM. In addition, the GI50 in [5] is 18.7 µM; in experiment [6], 19.6 µM. For the same molecule, the TGI in experiment [2] was > 100 µM; in [7] it was 42.5 µM; in experiment [8], 41.3 µM; in experiment [9] it was 34.2 µM; in experiment [3], 61.4 µM; in experiment [4], 43.6 µM. The results for the TGI in [5] and in experiment [6] were 35.2 µM and 42.8 µM, respectively.

For `CCOC(=O)C(=CNC(=S)N=Nc1c(O)[nH]c2ccccc12)C(=O)OCC`, the TGI in experiment [1], in [2], in experiment [8], in experiment [9], in [3] and in experiment [10] was > 100 µM each time. The TGI in experiment [4] and in [5] was > 100 µM in each case.

`COc1cc(C(=O)O[C@H](C(=O)NCCN(C)CCNC(=O)[C@@H](OC(=O)c2cc(OC)cc3c(C)cccc23)[C@]2(C)CO2)[C@]2(C)CO2)c2cccc(C)c2c1`: the GI50 in experiment [2] was < 0.01 µM; in [7], 0.106 µM; in [8] it was 0.575 µM; in [9], 0.893 µM; in experiment [3], 0.0391 µM; in experiment [10] it was < 0.01 µM. For the same molecule, the GI50 in experiment [4] is < 0.01 µM; in [5] it was 0.417 µM. Also, the TGI in experiment [7] was 1.72 µM; in experiment [8] it was 3.6 µM; in experiment [9] it was 7.85 µM; in experiment [3] it was 1.55 µM; in experiment [4], < 0.0324 µM; in experiment [5], > 100 µM.

Consider `Cc1ccc2nc3cc(C)c(=O)cc-3sc2c1`, for which the TGI in experiment [1] is 64.7 µM; in experiment [2] it was 45.2 µM; in experiment [7], > 100 µM; in experiment [8] it was > 100 µM; in experiment [9] it was > 100 µM; in experiment [3] it was > 100 µM. Further, the TGI in experiment [4], in experiment [5] and in experiment [6] was > 100 µM throughout.

As for `COC1=C(Cl)C(=O)c2c(O)ccc(O)c2C1=O`, the TGI in experiment [2] came out at 0.213 µM; in experiment [7] it was 10.6 µM; in experiment [8], 29.4 µM; in experiment [9] it was 2.31 µM; in experiment [3] it was 0.53 µM; in experiment [10] it was 3.63 µM. Besides, the TGI in experiment [4] turned out to be 4.78 µM; in [5], 3.71 µM; in [6], 1.1 µM.

`NC(=O)c1cccc(OCC(O)CO)c1` (stereo not drawn): the TGI in experiment [1], in [2], in experiment [7], in [8], in experiment [9] and in experiment [3] was > 100 µM each time. The TGI in [4] and in experiment [5] was > 100 µM each time.

`O=C1C=Cc2c1ccc1ccccc21`: the GI50 was 14.8 µM in experiment [2]; 12.6 µM in experiment [7]; 30.2 µM in experiment [8]; 14.3 µM in experiment [9]; 30.9 µM in experiment [3]; 22 µM in [10]. Besides, the GI50 in [4] was 25.3 µM; in experiment [5], 26.7 µM. The TGI in [2] was 43.9 µM; in experiment [7], 61.3 µM; in experiment [8], > 100 µM; in [9], 50 µM; in experiment [3] it was > 100 µM; in experiment [10], 61.8 µM. Also, the TGI in experiment [4] was 73.6 µM; in experiment [5], > 100 µM.
